Laboratory results: patent publication US20260365628A1, “SUBSTITUTED 3,4-DIHYDROQUINOLINONE INHIBITORS OF TSHR” (Septerna, Inc., priority 2022, published 2026)

Biological target: T1, hTSHR (Homo sapiens, UniProt P16473)
T1 construct: expressed in transfected cells
Assay: hTSHR TR-FRET cAMP Assay (inhibition of M22-stimulated cAMP production)
Assay type: cell-based
Details: Expi293F Inducible cells stably expressing hTSHR; cAMP HTRF; stimulated with EC80 of anti-TSHR antibody M22; 15 min compound preincubation, 30 min at 37° C.; read-out: Activity (IC50 bins)
Procedure, shortened: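 Readout was a cAMP HTRF ratio of 655/620 nm after lysis, scaled between the EC80 M22 signal (0% inhibition) and no-agonist vehicle (100%). Frozen induced Expi293F-hTSHR cells saw test compounds (0.5% DMSO) for 15 min at 37 °C before 30 min of M22 stimulation at EC80.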

T1 sequence (P16473 21-764): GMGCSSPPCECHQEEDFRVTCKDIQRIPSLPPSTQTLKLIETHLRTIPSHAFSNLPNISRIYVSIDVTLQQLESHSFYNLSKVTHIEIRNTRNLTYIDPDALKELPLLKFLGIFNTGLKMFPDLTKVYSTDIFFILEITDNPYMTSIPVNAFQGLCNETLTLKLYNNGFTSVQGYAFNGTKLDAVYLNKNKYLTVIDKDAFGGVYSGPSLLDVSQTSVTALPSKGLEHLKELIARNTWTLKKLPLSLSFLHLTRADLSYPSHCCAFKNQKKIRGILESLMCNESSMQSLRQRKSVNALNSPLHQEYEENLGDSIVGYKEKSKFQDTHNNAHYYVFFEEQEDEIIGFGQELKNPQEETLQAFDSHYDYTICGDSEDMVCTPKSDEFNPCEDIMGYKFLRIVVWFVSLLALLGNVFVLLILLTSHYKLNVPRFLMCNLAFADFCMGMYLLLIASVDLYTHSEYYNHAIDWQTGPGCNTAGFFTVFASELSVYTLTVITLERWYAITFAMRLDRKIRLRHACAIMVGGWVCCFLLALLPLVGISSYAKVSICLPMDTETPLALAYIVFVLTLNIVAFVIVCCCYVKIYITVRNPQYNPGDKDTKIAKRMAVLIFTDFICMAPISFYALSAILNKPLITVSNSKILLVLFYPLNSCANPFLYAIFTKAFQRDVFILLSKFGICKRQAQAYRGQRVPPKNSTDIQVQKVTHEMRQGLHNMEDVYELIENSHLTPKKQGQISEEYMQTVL

IC50 [nM] | SMILES
100 to 1000 | C[C@@H](c1cccc(OC(F)(F)F)c1)n1c(=O)cnc2cc(NC(=O)NC(C)(C)C(F)(F)F)ccc21 [Example 208, (S)-1-(2-oxo-1-(1-(3-(trifluoromethoxy)phenyl)ethyl)-1,2-dihydroquinoxalin-6-yl)-3-(1,1,1-trifluoro-2-methylpropan-2-yl)urea]
100 to 1000 | Cc1c(NC(=O)NC(C)(C)C)ccc2c1ncc(=O)n2[C@@H](C)c1cccc(OC(F)(F)F)c1 [Example 209, (S)-1-(tert-butyl)-3-(5-methyl-2-oxo-1-(1-(3-(trifluoromethoxy)phenyl)ethyl)-1,2-dihydroquinoxalin-6-yl)urea]
< 100 | C[C@@H](c1cccc(OC(F)(F)F)c1)n1c(=O)cnc2cc(NC(=O)NC3(C)CCCCC3)ccc21 [Example 210, (S)-1-(1-methylcyclohexyl)-3-(2-oxo-1-(1-(3-(trifluoromethoxy)phenyl)ethyl)-1,2-dihydroquinoxalin-6-yl)urea]
< 100 | C[C@@H](c1cccc(OC(F)(F)F)c1)n1c(=O)cnc2cc(NC(=O)NC34CCC(CC3)C4)ccc21 [Example 211, (S)-1-(bicyclo[2.2.1]heptan-1-yl)-3-(2-oxo-1-(1-(3-(trifluoromethoxy)phenyl)ethyl)-1,2-di-hydroquinoxalin-6-yl)urea]
> 1000 | C[C@@H](c1cccc(OC(F)(F)F)c1)n1c(=O)cnc2cc(NC(=O)NC3(C)COC3)ccc21 [Example 212]
< 100 | C[C@@H](c1cccc(OC(F)(F)F)c1)n1c(=O)cnc2cc(NC(=O)NC34CCC(C3)C4)ccc21 [Example 213, (S)-1-(bicyclo[2.1.1]hexan-1-yl)-3-(2-oxo-1-(1-(3-(trifluoromethoxy)phenyl)ethyl)-1,2-dihydroquinoxalin-6-yl)urea]
100 to 1000 | C[C@@H](c1cccc(OC(F)(F)F)c1)n1c(=O)cnc2cc(NC(=O)NC3(C(F)(F)F)CCC3)ccc21 [Example 214, (S)-1-(2-oxo-1-(1-(3-(trifluoromethoxy)phenyl)ethyl)-1,2-dihydroquinoxalin-6-yl)-3-(1-(trifluoromethyl)cyclobutyl)urea]
100 to 1000 | COCC1(NC(=O)Nc2ccc3c(c2)ncc(=O)n3[C@@H](C)c2cccc(OC(F)(F)F)c2)CCC1 [Example 215, (S)-1-(1-(methoxymethyl)cyclobutyl)-3-(2-oxo-1-(1-(3-(tri-fluoromethoxy)phenyl)ethyl)-1,2-dihydroquinoxalin-6-yl)urea]
100 to 1000 | C[C@@H](c1cccc(OC(F)(F)F)c1)n1c(=O)cnc2cc(NC(=O)NC3CCC(F)(F)CC3)ccc21 [Example 216]
100 to 1000 | C[C@@H](c1cccc(OC(F)(F)F)c1)n1c(=O)cnc2cc(NC(=O)NC3(C(F)(F)F)CCCC3)ccc21 [Example 217]
100 to 1000 | C[C@@H](c1cccc(OC(F)(F)F)c1)n1c(=O)cnc2c(Cl)c(NC(=O)NC(C)(C)C)ccc21 [Example 218, (S)-1-(tert-butyl)-3-(5-chloro-2-oxo-1-(1-(3-(trifluoromethoxy)phenyl)ethyl)-1,2-dihydroquinoxalin-6-yl)urea]
100 to 1000 | C[C@@H](c1cccc(OC(F)(F)F)c1)n1c(=O)cnc2cc(NC(=O)NC3(C)CC(F)(F)C3)ccc21 [Example 221, (S)-1-(3,3-difluoro-1-methylcyclobuty 1)-3-(2-oxo-1-(1-(3-(trifluoromethoxy)phenyl)ethyl)-1,2-dihydroquinoxalin-6-yl)urea]
100 to 1000 | C[C@@H](c1cccc(OC(F)(F)F)c1)n1c(=O)cnc2cc(NC(=O)NC3(C(F)(F)F)COC3)ccc21 [Example 222]
100 to 1000 | C[C@@H](c1cccc(OC(F)(F)F)c1)n1c(=O)cnc2cc(NC(=O)N[C@H]3C[C@H](C(F)(F)F)C3)ccc21 [Example 223, 1-(2-oxo-1-((S)-1-(3-(trifluoromethoxy)phenyl)ethyl)-1,2-dihydroquinoxalin-6-yl)-3-((1r,3R)-3-(trifluoromethyl)cyclobutyl)urea]
100 to 1000 | C[C@@H](c1cccc(OC(F)(F)F)c1)n1c(=O)cnc2cc(NC(=O)N[C@H]3C[C@@H](C(F)(F)F)C3)ccc21 [Example 224, 1-(2-oxo-1-((S)-1-(3-(trifluoromethoxy)phenyl)ethyl)-1,2-dihydroquinoxalin-6-yl)-3-((1s,3S)-3-(trifluoromethyl)cyclobutyl)urea]
100 to 1000 | C[C@@H](c1cccc(OC(F)(F)F)c1)n1c(=O)cnc2cc(NC(=O)NC3(C(F)(F)F)CC(F)(F)C3)ccc21 [Example 225, (S)-1-(3,3-difluoro-1-(trifluoromethyl)cyclobutyl)-3-(2-oxo-1-(1-(3-(trifluoromethoxy)phenyl)ethyl)-1,2-dihydroquinoxalin-6-yl)urea]
< 100 | C[C@H]1Oc2cc(NC(=O)NC3(C)CCC3)ccc2N(Cc2cccc(C(F)(F)F)n2)C1=O [Example 226, 1-[(2R)-2-methyl-3-oxo-4-{[6-(trifluoromethyl)pyridin-2-yl]methyl}-2H-1,4-benzoxazin-7-yl]-3-(1-methylcyclobutyl)urea]

IC50 [nM] | SMILES
< 100 | C[C@H]1Oc2cc(NC(=O)NC3(C)CCCC3)ccc2N(Cc2cccc(C(F)(F)F)n2)C1=O [Example 227, (R)-1-(2-methyl-3-oxo-4-((6-(trifluoromethyl)pyridin-2-yl)methyl)-3,4-dihydro-2H-benzo[b][1,4]oxazin-7-yl)-3-(1-methylcyclopentyl) urea]
< 100 | C[C@H]1Oc2cc(NC(=O)NC3CCCCC3)ccc2N(Cc2cccc(C(F)(F)F)n2)C1=O [Example 228, (R)-1-cyclohexyl-3-(2-methyl-3-oxo-4-((6-(trifluoromethyl)pyridin-2-yl)methyl)-3,4-dihydro-2H-benzo[b][1,4]oxazin-7-yl)urea]
< 100 | C[C@H]1Oc2cc(NC(=O)NC3(C)CCCCC3)ccc2N(Cc2cccc(C(F)(F)F)n2)C1=O [Example 229, (R)-1-(2-methyl-3-oxo-4-((6-(trifluoromethyl)pyridin-2-yl)methyl)-3,4-dihydro-2H-benzo[b][1,4]oxazin-7-yl)-3-(1-methylcyclohexyl) urea]
100 to 1000 | C[C@H]1Oc2cc(NC(=O)NC3CC4CC4C3)ccc2N(Cc2cccc(C(F)(F)F)n2)C1=O (stereo partly drawn) [Example 230, 1-(bicyclo[3.1.0]hexan-3-yl)-3-((R)-2-methyl-3-oxo-4-((6-(trifluoromethyl)pyridin-2-yl)methyl)-3,4-dihydro-2H-benzo[b][1,4]oxazin-7-yl)urea]
100 to 1000 | C[C@H]1Oc2cc(NC(=O)NC3(C)CC(F)(F)C3)ccc2N(Cc2cccc(C(F)(F)F)n2)C1=O [Example 231, (R)-1-(3,3-difluoro-1-methylcyclobutyl)-3-(2-methyl-3-oxo-4-((6-(trifluoromethyl)pyridin-2-yl)methyl)-3,4-dihydro-2H-benzo[b][1,4]oxazin-7-yl)urea]
100 to 1000 | C[C@H]1Oc2cc(NC(=O)NC3(C(F)(F)F)CCC3)ccc2N(Cc2cccc(C(F)(F)F)n2)C1=O [Example 232, (R)-1-(2-methyl-3-oxo-4-((6-(trifluoromethyl)pyridin-2-yl)methyl)-3,4-dihydro-2H-benzo[b][1,4]oxazin-7-yl)-3-(1-(trifluoromethyl)cyclobutyl)urea]
100 to 1000 | COCC1(NC(=O)Nc2ccc3c(c2)O[C@H](C)C(=O)N3Cc2cccc(C(F)(F)F)n2)CCC1 [Example 233, (R)-1-(1-(methoxymethyl)cyclobutyl)-3-(2-methyl-3-oxo-4-((6-(trifluoromethyl)pyridin-2-yl)methyl)-3,4-dihydro-2H-benzo[b][1,4]oxazin-7-yl)urea]
< 100 | C[C@H]1Oc2cc(NC(=O)NC3(C(F)(F)F)CCCC3)ccc2N(Cc2cccc(C(F)(F)F)n2)C1=O [Example 234, (R)-1-(2-methyl-3-oxo-4-((6-(trifluoromethyl)pyridin-2-yl)methyl)-3,4-dihydro-2H-benzo[b][1,4]oxazin-7-yl)-3-(1-(trifluoromethyl)cyclopentyl)urea]
100 to 1000 | C[C@H]1Oc2cc(NC(=O)NC3CCC(F)(F)CC3)ccc2N(Cc2cccc(C(F)(F)F)n2)C1=O [Example 235, (R)-1-(4,4-difluorocyclohexyl)-3-(2-methyl-3-oxo-4-((6-(trifluoromethyl)pyridin-2-yl)methyl)-3,4-dihydro-2H-benzo[b][1,4]oxazin-7-yl)urea]
100 to 1000 | C[C@H]1Oc2cc(NC(=O)NC(C)(C)CCO)ccc2N(Cc2ccccc2)C1=O [Example 236, (R)-1-(4-benzyl-2-methyl-3-oxo-3,4-dihydro-2H-benzo[b][1,4]oxazin-7-yl)-3-(4-hydroxy-2-methylbutan-2-yl)urea]
< 100 | C[C@H]1Oc2cc(NC(=O)NC3CCCC3)ccc2N(Cc2ccccc2)C1=O [Example 237, (R)-1-(4-benzyl-2-methyl-3-oxo-3,4-dihydro-2H-benzo[b][1,4]oxazin-7-yl)-3-cyclopentylurea]
> 1000 | C[C@H]1Oc2cc(NC(=O)NC(C)(C)[C@H]3C[C@@H](O)C3)ccc2N(Cc2ccccc2)C1=O [Example 238]
> 1000 | CC(C)(O)CNC(=O)Nc1ccc2c(c1)ncc(=O)n2Cc1cccc(OC(F)(F)F)c1 [Example 239, 1-(2-hydroxy-2-methylpropyl)-3-(2-oxo-1-(3-(trifluoromethoxy)benzyl)-1,2-dihydroquinoxalin-6-yl)urea]
100 to 1000 | CC(C)(C)CNC(=O)Nc1ccc2c(c1)ncc(=O)n2Cc1cccc(OC(F)(F)F)c1 [Example 240, 1-neopentyl-3-(2-oxo-1-(3-(trifluoromethoxy)benzyl)-1,2-dihydroquinoxalin-6-yl)urea]
> 1000 | CC(C)(C#N)CNC(=O)Nc1ccc2c(c1)ncc(=O)n2Cc1cccc(OC(F)(F)F)c1 [Example 241, 1-(2-cyano-2-methylpropyl)-3-(2-oxo-1-(3-(trifluoromethoxy)benzyl)-1,2-dihydroquinoxalin-6-yl)urea]
> 1000 | CC(C)(CO)CNC(=O)Nc1ccc2c(c1)ncc(=O)n2Cc1cccc(OC(F)(F)F)c1 [Example 242, 1-(3-hydroxy-2,2-dimethylpropyl)-3-(2-oxo-1-(3-(trifluoromethoxy)benzyl)-1,2-dihydroquinoxalin-6-yl)urea]
